Test results published in US20250312289A1, “METHODS AND COMPOSITIONS COMPRISING TOBACCO MILD GREEN MOSAIC VIRUS (TMGMV)” (priority 2022, published 2025).

Key:
β-CD-TMGMV = experiment: Doxorubicin competition (displacement) assay for loading onto β-CD-TMGMV; assay type: binding; details: competitor at 1000 eq, overnight at 4° C.
Experimental: To assess loading of pesticides to β-CD-TMGMV, competition assays were completed between Doxorubicin (ApexBio) and the target molecules. Samples of 100 μL volume were prepared in a 96-well plate (Costar). For sample wells, 0.0825 mg of β-CD-conjugated TMGMV in KP buffer were added to the wells, in addition with doxorubicin at 10 eqβ-CD-TMIGMV (molar equivalents to β-CD-conjugated TMGMV).
Three control conditions were utilized: 1 eq TMGMV, 575 eq β-CD, and 1 eq TMGMV with 575 eq β-CD (non-conjugated). These control wells also received doxorubicin at 10 eq. The plate was incubated overnight at 4° C. on a plate rocker (Fisher). Fluorescence top readings were conducted on the plate (excitation 470 nm, emission 595 nm, 25 flashes) via UV-Vis Plate Reader (Tecan infinite 200Pro). […] Following a repeat overnight incubation at 4° C. on a plate rocker (Fisher), fluorescent reading was repeated as before.
Samples of 100 μL volume were prepared in a 96-well plate (Costar). For sample wells, 0.0825 mg of β-CD-conjugated TMGMV in KP buffer were added to the wells, in addition with doxorubicin at 10 eq (molar equivalents to β-CD-conjugated TMGMV). […] Fluorescence top readings were then conducted on the plate (excitation 470 nm, emission 595 nm, 25 flashes) via UV-Vis Plate Reader (Tecan infinite 200Pro). […] The fluorescence was then read on the plate reader as described before. […]

TMGMV [1] = experiment: Quantification of loaded AI in TMGMV by HPLC; assay type: physicochemical, Tobacco Mild Green Mosaic Virus; details: for Detected in sample / Molecules per CP / Molecules per virion: HPLC
Experimental: (§1) Loading of AI into TMGMV via the “pH method” was performed. TMGMV at a concentration of 1 mg mL^−1 in 10 mM KP buffer at pH 7.5 was kept for 10 days at 4° C. The following AIs were used: fluopyram and clothianidin, (BASF, Berkeley, CA, USA), rifampicin and ivermectin (BioVision; Milpitas, CA, USA). Cy5 (Lumiprobe; Cockeysville, MD, USA) and doxorubicin (ApexBio; Houston, TX, USA) were also studied as proof of concept (fluorescent molecule and cancer chemotherapy). The AI was added to TMGMV by adding an excess of 10:1 AI:coat protein (CP; each TMGMV rod is assembled from ˜2,100 identical CPs) every day until a ratio of 100:1 was reached. During this process the reaction was kept mixing on a rotary shaker. 1 mL aliquots were obtained each day for further analysis.
After AI loading, the aliquots were spin-filtered using 100K molecular weight cut-off 0.5 mL filters (MilliporeSigma, Burlington, MA, USA). 200 μL of the aliquot and 250 μL of KP solution were added and then centrifuged at 16,160×g for 5 minutes at 4° C., the flow-through was discarded, and then 450 μL of KP was added and centrifuged again, this step was repeated 3 times. After the third centrifugation, the filter was inverted in a new tube and centrifuged at 1000×g for 2 minutes, to recover the supernatant and carry out the subsequent characterization.
(§2) Loading of AI into TMGMV via the “DMSO method” was performed. TMGMV in 10 mM KP buffer (pH 7.2) was diluted to 5 mg mL-1 in 2 mL of buffer and transferred to a 25 mL beaker and magnetically stirred at 300 rpm at room temperature. A solution of DMSO and 10 mM KP was added dropwise to dilute the solution to a 20% (v/v) concentration of DMSO and 2 mg mL-1 of TMGMV. Aliquots of the AIs were added dropwise to the solution to prevent precipitation. The solutions were left to stir at room temperature for 24 hours. The samples were collected and spin filtered as described above before being stored at 4° C.
For HPLC, AI was extracted from TMGMV. In brief, the concentration of TMGMV samples was adjusted to 1.2 mg mL-1 in KP. The solution was diluted 4-fold into a 1:1 acetonitrile/:methanol mixture and vortexed for 30 seconds. The solution was centrifuged at 10,000×g for 10 minutes at 4° C. and the organic phase (bottom fraction) was collected and transferred to an HPLC 2 mL glass screw top vial (SureSTART, Thermo Scientific, Waltham, MA, USA).
After a 10-fold dilution in acetonitrile, the extracted samples were injected at 500 μL and run on 5 μm C18 column (20×100 mm) using a Shimadzu LC-40 HPLC system (Columbia, MD, USA). The method was run at 0.5 mL min-1 in a gradient of acetonitrile and 0.02% (v/v) phosphoric acid for 15 minutes per sample. A photodiode array was used to collect absorbance values at 280 nm (fluopyram), 269 nm (clothianidin), 225 nm (ivermectin), and 330 nm (rifampicin). The absorbance values were fitted to a standard curve to identify sample concentration with N=3.

TMGMV [2] = experiment: Quantitative TEM width analysis of AI-loaded TMGMV prepared via pH and DMSO methods, Example 6; assay type: physicochemical, Tobacco Mild Green Mosaic Virus; details: negative-stain TEM, native 15.7 nm; for maximum width of AI-loaded TMGMV: pH and DMSO methods
Experimental: as §1, §2
TMGMV samples were diluted to a concentration of 0.05 mg mL-1 and absorbed onto carbon-coated TEM grids (Electron Microscopy Sciences, Hatfield, PA, USA). The grids were then washed three times with pure water. Then, grids were stained by 2% (w/v) uranyl acetate for 90 seconds. TEM was conducted using a FEI Tecnai F30 transmission electron microscope operated at 300 kV. Image analysis was performed using ImageJ software (https://imagej.nih.gov/ij/download.html). To determine the change in width of the nanoparticles, the width of sections of 100 nm in length was measured for standardization purposes. Five different sections were measured per micrography and 30 of them in total per sample. Subsequently, for the complete particle, the length, the perimeter and the area were measured, to later calculate the average width from the perimeter.
TEM imaging and quantitative TEM imaging analysis of the AI-loaded TMGMV nanoparticles prepared by the pH method and the DMSO method was performed. […] To gain insights into the degree of structural changes, quantitative TEM image analysis was performed comparing native vs. the AI-laden TMGMV. Based on the negative stain, native virions were 15.7 nm in width in average (±1.9 nm), which is an underestimation to native TMGMV of 18 nm. This may be due to the uranyl acetate negative staining yielding a heavy shadow on the borders of the virion, apparently reducing its width. While there was no statistical significance between the controls that underwent both methodologies (FIG. 27), for each compound the increment (in comparison to native TMGMV) was different, as well as between methodologies (FIG. 17A).

TMGMV [3] = experiment: TEM/ImageJ width of TMGMV infused with AI by partial dissociation (breathing), Example 3; assay type: physicochemical, Tobacco Mild Green Mosaic Virus; details: pH 7.5, 5 days, 500:1 equivalence ratio; TEM; control 18 nm
Experimental: TMGMV at a concentration of 5 mg mL^−1 in KP buffer at pH 7.5 was kept for 5 days at 4° C. Addition of the target AI to the solution was done every 24 h until reaching a 500:1 equivalence ratio and left mixing on a rotary shaker. Afterwards, the solution was centrifuged at 50,000 rpm in the tabletop ultracentrifuge (Beckman Optima MAX-XP with TLA-55 rotor) for 1 hour on a sucrose cushion (30% w/v). The viral pellet was then resuspended in 10 mM KP pH 7 overnight at 4° C. on a rotary shaker. After total resuspension, the solution was dialyzed for 48 h to remove excess (non-entrapped) AI.
Samples were diluted to the concentration of 0.05 mg mL^−1 and absorbed onto carbon-coated TEM grids (Electron Microscopy Sciences). The grids were then washed three times with pure water. Then, grids were stained by 2% (w/v) uranyl acetate for 2 min for imaging. TEM was conducted using a FEI Tecnai F30 transmission electron microscope operated at 300 kV.
Experiments were conducted to load pesticides into TMGMV by strategically altering the pH. Without being bound by theory, this entraps Als through the formation of “pockets” between coat proteins (CPs). Without being bound by theory, the rationale is that by increasing the pH of the buffer, the virus will start to dissociate and hydrophobic pockets will get created between the virion's coat proteins. AIs are then added to interact with the virus particles and then the pH is decreased to promote particles' self-assembly and entrapment of AI on the hydrophobic pockets (see schematic of FIG. 7). As discussed above, TMGMV at a concentration of 5 mg mL-1 in KP buffer at pH 7.5 was kept for at 4° C. for 5 days, and the target AI was added to the solution every 24 h until reaching a 500:1 equivalence ratio. Afterwards, the solution was centrifuged at 50,000 rpm for 1 hour on a sucrose cushion (30% w/v). The viral pellet was then resuspended in 10 mM KP pH 7 overnight at 4° C., and after total resuspension, the solution was dialyzed for 48 h to remove excess (non-entrapped) AI. Samples were then observed at TEM and analyzed using ImageJ.
To determine the change in width (breathing/infusion) of the nanoparticles, the width of sections of 100 nm in length of nanoparticles (as shown in the micrography of FIG. 8) was measured. This was done to standardize the measurements and determine the change in width. At least 5 different sections were measured per micrography, and at least 30 sections were measured in total per sample.

[4] = cited from earlier work
TMGMV [5] = experiment: Size exclusion chromatography with absorbance (Beer-Lambert) loading determination; assay type: physicochemical, Tobacco Mild Green Mosaic Virus; details: SEC absorbance 480 nm / 647 nm, Beer-Lambert law
Experimental: TMGMV samples (500 μL at 0.5 mg/mL) were analyzed using a Superose6 Increase 100 GL column and an AKTA Pure25 chromatography system (GE Healthcare, Chicago, Il, USA) using a flow rate 0.5 mL/min in 10 mM KP (pH 7.4). […]
Size exclusion chromatography (SEC) was performed to further verify structural integrity of the AI-laden TMGMV particles during post-processing and purification.

[6] = DMSO method (20% v/v, 24 hours)

Molecule | doxorubicin initially bound to β-CD-TMGMV displaced (β-CD-TMGMV) | less loading using DMSO method vs pH method (TMGMV [1]; 24 hour DMSO vs 10-day pH) | Detected in sample (TMGMV [1]; [6]) | Molecules per CP (TMGMV [1]; [6]) | Molecules per virion (TMGMV [1]; [6]) | Detected in sample (TMGMV [1]; pH method (pH 7.5, 10 days)) | Molecules per CP (TMGMV [1]; pH method (pH 7.5, 10 days)) | Molecules per virion (TMGMV [1]; pH method (pH 7.5, 10 days)) | width increase compared to negatively-stained native TMGMV (TMGMV [2]) | average width of infused TMGMV (TMGMV [3]) | increase in width vs native TMGMV control (TMGMV [3]) | logP [4] | loading, molecules per TMGMV (TMGMV [5]) | increase in loading using DMSO method vs pH method (TMGMV [1]; 24 hour DMSO vs 10-day pH) | maximum width of AI-loaded TMGMV (TMGMV [2])
CN/C(=N\[N+](=O)[O-])NCc1cnc(Cl)s1 [Clothianidin, clothianidin] | 17.60% | about 10% | 2.06 µg/mL | 0.47 | 995 | 2.29 µg/mL | 0.52 | 1107.55 | 65% | 26 nm | 38% | 1.3 |  |  | 
COc1cccc2c1C(=O)c1c(O)c3c(c(O)c1C2=O)C[C@@](O)(C(=O)CO)C[C@@H]3O[C@H]1C[C@H](N)[C@H](O)[C@H](C)O1 [Doxorubicin, doxorubicin] |  |  |  |  |  |  |  |  |  | 35 nm | 89% | 0.02 | ~615 |  | 
O=C(NCCc1ncc(C(F)(F)F)cc1Cl)c1ccccc1C(F)(F)F [Fluopyram, fluopyram] | 18.34% |  | 0.61 µg/mL | 0.087 | 185.59 | 0.05 µg/mL | 0.007 |  | 14% | 22 nm | 21% | 3.33 |  | 11.7 fold | 18 nm
CO[C@H]1/C=C/O[C@@]2(C)Oc3c(C)c(O)c4c(O)c(c(/C=N/N5CCN(C)CC5)c(O)c4c3C2=O)NC(=O)/C(C)=C\C=C\[C@H](C)[C@H](O)[C@@H](C)[C@@H](O)[C@@H](C)[C@H](OC(C)=O)[C@@H]1C [Rifampicin, rifampicin] |  |  |  |  |  |  |  |  |  |  |  | 2.4 |  |  | 
cyanine5 [Cyanine 5] |  |  |  |  |  |  |  |  |  |  |  | 3.84 | ~80 |  | 
ivermectin |  |  | 0.44 µg/mL | 0.029 | 61.63 | 0.02 µg/mL | 0.001 | 2.89 | 46% |  |  | 4.4 |  | 21.3 fold | 23 nm
